{
  "source": "patent US20210308138A1",
  "about": "“TISSUE TRANSGLUTAMINASE MODULATORS FOR MEDICINAL USE” (Aarhus Universitet, priority 2018, published 2021)",
  "key": {"purified human TG2": {"molecular_target": "T1, purified human TG2 (Homo sapiens, UniProt P21980)", "T1 construct": "purchased Zedira (Darmstadt, Germany); host or cells: insect cells", "T1 sequence (P21980 1-687)": "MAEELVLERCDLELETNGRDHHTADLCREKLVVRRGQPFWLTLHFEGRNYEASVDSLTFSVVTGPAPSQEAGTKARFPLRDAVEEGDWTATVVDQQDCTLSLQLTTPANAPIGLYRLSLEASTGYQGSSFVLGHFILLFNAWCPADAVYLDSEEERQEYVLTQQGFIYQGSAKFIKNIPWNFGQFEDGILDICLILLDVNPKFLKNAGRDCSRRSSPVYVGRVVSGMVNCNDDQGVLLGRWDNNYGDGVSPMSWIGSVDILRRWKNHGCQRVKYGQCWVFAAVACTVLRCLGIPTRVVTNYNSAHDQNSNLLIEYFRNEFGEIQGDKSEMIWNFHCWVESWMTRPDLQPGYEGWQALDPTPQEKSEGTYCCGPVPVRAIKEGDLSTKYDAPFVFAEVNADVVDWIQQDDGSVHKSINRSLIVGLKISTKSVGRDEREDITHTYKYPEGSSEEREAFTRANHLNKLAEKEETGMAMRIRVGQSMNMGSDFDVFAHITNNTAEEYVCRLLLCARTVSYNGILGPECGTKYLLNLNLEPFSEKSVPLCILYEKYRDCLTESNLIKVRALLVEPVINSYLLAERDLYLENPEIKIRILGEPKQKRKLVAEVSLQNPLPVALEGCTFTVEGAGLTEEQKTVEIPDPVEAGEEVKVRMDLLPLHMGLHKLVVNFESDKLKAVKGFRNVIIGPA", "test": "Conformational shift assay by native polyacrylamide gel electrophoresis (native-PAGE)", "type": "biochemical", "details": "TG2 2.5 uM; 1 mM LDN-27219, 1 mM GTPNa2, or 0.2 mM Z-DON with CaCl2", "method": "For the conformational shift assay using native polyacrylamide gel electrophoresis (native-PAGE) purified and functional human TG2 protein produced in insect cells was obtained from Zedira (Darmstadt, Germany).\nNative gel electrophoresis experiments were performed using a method similar to those previously described (Pinkas D M, et al., PLoS Biol, 2007, 5(12), 2788-2796.) (Iversen R, et al., Proc Natl. Acad. Sci., 2014, 111(43), 17146-17151). Briefly, TG2 (2.5 uM) was incubated for 30 min at room temperature in preincubation buffer (75 mM imidazole, 0.5 mM EDTA, 5 mM DTT [pH 7.2], 10% DMSO) with or without 1 mM GTPNa2 or 1 mM LDN-27219 before adding Native Sample Buffer for Protein Gels (Bio-Rad) or in preincubation buffer with 0.2 mM Z-DON 30 min prior addition of 5 mM of CaCl2 for 20 min. Native buffer was added (dilution 1:2), and 1.5 ug of protein was loaded onto a 4-20% Criterion™ TGX Stain-Free™ gel (Bio-Rad) using Tris-glycine as the running buffer. For 75 min, 125 V was applied at 4° C. The bands were visualized using stain-free technology by exposing the gels to UV light and capturing the image using a PXi 4 Touch image analysis system (Syngene). Band intensity analysis was carried out using GeneTools 4 software (Syngene)."}, "[1]": {"system": "small mesenteric arteries", "test": "Acetylcholine-induced endothelium-dependent relaxation of phenylephrine pre-contracted small mesenteric arteries, isometric myograph (ex vivo)", "parameters": "species or system Male Wistar rats", "method": "Small mesenteric arteries were mounted in microvascular myographs (Danish Myotechnology, Aarhus, Denmark) using two 40 μm wires and stretched to their optimal diameter for isometric tension recordings, which corresponded to 0.9 times the estimated internal diameter at 100 mmHg of transmural pressure. PSS solution in the myograph bath was heated to 37° C. and continuously bubbled with 5% CO2 in air to maintain pH (7.4). The vessel viability was tested at the beginning of each experiment by measuring the vasoconstrictor responses to a solution with a high K^+ concentration (KPSS), equivalent to PSS except that NaCl was exchanged for KCl on an equimolar basis, giving a final concentration of 123.7 mmol/L K^+ and the presence of endothelium was confirmed by addition of acetylcholine (ACh) (10^−5) after pre-constriction with noradrenaline (5·10^−6 mol/L), arteries with less than 75% of relaxation were discarded.\nMesenteric arteries from rats of different age were incubated with (10^−6 mol/L) LDN-27219 or vehicle for 25 minutes and pre-contracted with phenylephrine (Phe) (10^−5 mol/L). Then cumulative addition of acetylcholine (ACh) caused the relaxation of the mesenteric arteries and the concentration-response curves were constructed.\nRats of 5-7 weeks age, about 12 weeks age, and more than 30 weeks of age were tested respectively. The results of the isometric tension studies are shown in FIGS. 1, A), B) and C) respectively, each representing a different their age group.\n(§1) The small mesenteric arteries were prepared in the same way is described in example 1."}, "[2]": {"system": "small mesenteric arteries", "test": "Direct relaxation of U46619 pre-contracted small mesenteric arteries, concentration-response curves", "parameters": "species or system Male Wistar rats", "method": "as §1\nThe small mesenteric arteries were pre-contracted with the thromboxane analogue, U46619 (4·10^−7 mol/L) and concentration-response curves for TG2 specific inhibitors, LDN-27219 (10^−8-10^−5 mol/L) and Z-DON (10^−8-3·10^−4 mol/L) were constructed. To study the role of the endothelial pathways in LDN-27219 relaxation, concentration-response curves were constructed for it in arteries whose endothelium had been removed mechanically by rubbing the lumen repeatedly with a human scalp hair."}, "[3]": {"system": "small subcutaneous arteries obtained from human biopsies", "test": "Acetylcholine-induced relaxation of human small subcutaneous arteries", "details": "LDN-27219 3·10^−6 mol/L; acetylcholine 10^−8-10^−5 mol/L", "method": "(§2) Human subcutaneous arteries were obtained from fat biopsies of the gluteal region from both male and female patients (30-70 years of age) with essential hypertension.\n(§3) For ‘ex vivo’ studies, animals were randomly selected and euthanized by cervical dislocation and exanguination. The mesenteric arteries were immediately extracted and placed in 4° C. physiological saline solution (PSS, pH=7.4) of the following composition (mmol/L): 119 NaCl, 4.7 KCl, 1.18 KH2PO4, 1.17 MgSO4, 1.5 CaCl2), 24.9 NaHCO3, 0.026 EDTA and 5.5 glucose and small mesenteric arteries (internal diameters of 200-300 μm) were isolated. Human subcutaneous arteries (internal diameters of 300-400 μm) were dissected from the biopsies in the same conditions mentioned above for the mesenteric bed from rodents.\n(§4) Small human subcutaneous arteries were obtained from fat biopsies from the gluteal region of hypertensive patients and prepared as described in Example 1. Concentration-response curves for LDN-27219 were constructed as described in Example 4 (FIG. 5B) and relaxation measurements were performed as described in Example 1."}, "[4]": {"system": "healthy male BKS(D)-Leprdb/JOrlRj heterozygous mice", "test": "Erectile function in vivo, peak intracavernosal pressure (PICP) over MAP", "details": "preliminary in vivo studies"}, "[5]": {"system": "small subcutaneous arteries obtained from human biopsies", "test": "Direct relaxation of human small subcutaneous arteries", "details": "LDN-27219 10^−8-10^−5 mol/L; hypertensive patients", "method": "as §2, §3, §4"}},
  "note": "“Also recorded” adds a separate entry of the source.",
  "data": [
    {"smiles": "NNC(=O)CSc1nc2scc(-c3ccccc3)c2c(=O)n1-c1ccccc1", "note": "[LDN-27219]", "values": [
      {"measurement": "relative abundance of closed / open conformation of TG2", "setting": "purified human TG2", "value": "increase the relative abundance of the closed conformation"},
      {"measurement": "LDN-27219 potentiation of ACh-induced vasodilation in presence of irreversible TG2 inhibitor", "setting": "[1]; LDN-27219 10^−6 mol/L with VA-5 10^−5 mol/L, ≈12 week rats", "value": "reduced or completely inhibited"},
      {"measurement": "endothelium-dependent relaxation induced by acetylcholine, compared to vehicle", "setting": "[1]; LDN-27219 10^−6 mol/L, 25 min incubation, Phe 10^−5 mol/L pre-contraction, rats of different age", "value": "more potent endothelium-dependent relaxation; also recorded: increased the response to ACh"},
      {"measurement": "age dependence of the effect on acetylcholine-induced relaxation", "setting": "[1]; LDN-27219 10^−6 mol/L, rats 6-7, ≈12 and >30 weeks old", "value": "more pronounced in old rats, than in young rats"},
      {"measurement": "relaxation of U46619 pre-contracted arteries", "setting": "[2]; U46619 4·10^−7 mol/L, LDN-27219 10^−8-10^−5 mol/L, Z-DON 10^−8-3·10^−4 mol/L, endothelium intact", "value": "induced relaxation"},
      {"measurement": "relaxation of U46619 pre-contracted arteries without an endothelium layer", "setting": "[2]; endothelium removed mechanically", "value": "significantly reduced relaxation"},
      {"measurement": "endothelium-derived relaxation induced by acetylcholine, compared to vehicle", "setting": "[3]", "value": "improves the endothelium-derived relaxation"},
      {"measurement": "erectile function, peak intracavernosal pressure (PICP) over MAP", "setting": "[4]", "value": "increased erectile function"},
      {"measurement": "direct relaxation of human small subcutaneous arteries", "setting": "[5]", "value": "direct and dose-dependent relaxation"}
    ]}
  ]
}
